{
  "source": "PubChem BioAssay AID248",
  "about": "(DTP/NCI, 2004)",
  "system": "L1210 leukemia ip in BDF1 mice, survival T/C",
  "test": "NCI In Vivo Anticancer Drug Screen. Data for tumor model L1210 Leukemia (intraperitoneal) in B6D2F1 (BDF1) mice",
  "details": "endpoint: mean survival time, higher = longer survival",
  "summary_of_the_method": "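Transplantable tumor model; survival measured in treated vs vehicle control mice. Value = treated/control.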",
  "note": "Several values for one entry are separate records, joined by “and”; a condition that tells them apart may be missing. Equal values may be shown once. Inconclusive results and toxic doses are left out.",
  "data": [
    {"smiles": "O=c1[nH]cc(N(CCCl)CCCl)c(=O)[nH]1", "values": [
      {"measurement": "T/C", "setting": "dose: 0.04 mg/kg/injection, schedule: Q01DX001 (ip), vehicle: carboxymethylcellulose (CMC)", "value": "106 % of control"},
      {"measurement": "T/C", "setting": "dose: 0.05 mg/kg/injection, schedule: Q01DX Z (ip), vehicle: carboxymethylcellulose (CMC)", "value": "107 % of control"},
      {"measurement": "T/C", "setting": "dose: 0.05 mg/kg/injection, schedule: Q#A X Z (ip), vehicle: carboxymethylcellulose (CMC)", "value": "101 % of control"},
      {"measurement": "T/C", "setting": "dose: 0.07 mg/kg/injection, schedule: Q01DX001 (ip), vehicle: carboxymethylcellulose (CMC)", "value": "101 % of control"},
      {"measurement": "T/C", "setting": "dose: 0.07 mg/kg/injection, schedule: Q03DX006 (ip), vehicle: carboxymethylcellulose (CMC)", "value": "123 % of control"},
      {"measurement": "T/C", "setting": "dose: 0.09 mg/kg/injection, schedule: Q#A X Z (ip), vehicle: carboxymethylcellulose (CMC)", "value": "106 % of control"},
      {"measurement": "T/C", "setting": "dose: 0.1 mg/kg/injection, schedule: Q01DX Z (ip), vehicle: carboxymethylcellulose (CMC)", "value": "102 % of control"},
      {"measurement": "T/C", "setting": "dose: 0.1 mg/kg/injection, schedule: Q01DX Z (ip), vehicle: saline", "value": "157 % of control"},
      {"measurement": "T/C", "setting": "dose: 0.13 mg/kg/injection, schedule: Q01DX001 (ip), vehicle: carboxymethylcellulose (CMC)", "value": "100 % of control"},
      {"measurement": "T/C", "setting": "dose: 0.16 mg/kg/injection, schedule: Q07DX003 (ip), vehicle: carboxymethylcellulose (CMC)", "value": "108 % of control"},
      {"measurement": "T/C", "setting": "dose: 0.19 mg/kg/injection, schedule: Q#A X Z (ip), vehicle: carboxymethylcellulose (CMC)", "value": "110 % of control"},
      {"measurement": "T/C", "setting": "dose: 0.25 mg/kg/injection, schedule: Q01DX001 (ip), vehicle: carboxymethylcellulose (CMC)", "value": "105 % of control"},
      {"measurement": "T/C", "setting": "dose: 0.3 mg/kg/injection, schedule: Q01DX Z (ip), vehicle: saline", "value": "159 % of control"},
      {"measurement": "T/C", "setting": "dose: 0.3 mg/kg/injection, schedule: Q03DX006 (ip), vehicle: carboxymethylcellulose (CMC)", "value": "109 % of control"},
      {"measurement": "T/C", "setting": "dose: 0.32 mg/kg/injection, schedule: Q07DX003 (ip), vehicle: carboxymethylcellulose (CMC)", "value": "102 % of control"},
      {"measurement": "T/C", "setting": "dose: 0.37 mg/kg/injection, schedule: Q#A X Z (ip), vehicle: carboxymethylcellulose (CMC)", "value": "119 % of control"},
      {"measurement": "T/C", "setting": "dose: 0.38 mg/kg/injection, schedule: Q01DX006 (iv), vehicle: carboxymethylcellulose (CMC)", "value": "91 % of control"},
      {"measurement": "T/C", "setting": "dose: 0.38 mg/kg/injection, schedule: Q01DX Z (im), vehicle: carboxymethylcellulose (CMC)", "value": "98 % of control"},
      {"measurement": "T/C", "setting": "dose: 0.38 mg/kg/injection, schedule: Q01DX Z (sc), vehicle: carboxymethylcellulose (CMC)", "value": "104 % of control"},
      {"measurement": "T/C", "setting": "dose: 0.5 mg/kg/injection, schedule: Q01DX001 (ip), vehicle: carboxymethylcellulose (CMC)", "value": "170 % of control"},
      {"measurement": "T/C", "setting": "dose: 0.6 mg/kg/injection, schedule: Q03DX006 (ip), vehicle: carboxymethylcellulose (CMC)", "value": "170 % of control"},
      {"measurement": "T/C", "setting": "dose: 0.63 mg/kg/injection, schedule: Q07DX003 (ip), vehicle: carboxymethylcellulose (CMC)", "value": "121 % of control"},
      {"measurement": "T/C", "setting": "dose: 0.7 mg/kg/injection, schedule: Q01DX Z (ip), vehicle: saline", "value": "101 % of control"},
      {"measurement": "T/C", "setting": "dose: 0.75 mg/kg/injection, schedule: Q01DX006 (iv), vehicle: carboxymethylcellulose (CMC)", "value": "110 % of control"},
      {"measurement": "T/C", "setting": "dose: 0.75 mg/kg/injection, schedule: Q01DX015 (ip), vehicle: carboxymethylcellulose (CMC)", "value": "178 % of control"},
      {"measurement": "T/C", "setting": "dose: 0.75 mg/kg/injection, schedule: Q01DX Z (im), vehicle: carboxymethylcellulose (CMC)", "value": "101 % of control"},
      {"measurement": "T/C", "setting": "dose: 0.75 mg/kg/injection, schedule: Q01DX Z (ip), vehicle: carboxymethylcellulose (CMC)", "value": "119 % of control"},
      {"measurement": "T/C", "setting": "dose: 0.75 mg/kg/injection, schedule: Q01DX Z (sc), vehicle: carboxymethylcellulose (CMC)", "value": "107 % of control"},
      {"measurement": "T/C", "setting": "dose: 0.8 mg/kg/injection, schedule: Q01DX Z (ip), vehicle: other", "value": "109 % of control"},
      {"measurement": "T/C", "setting": "dose: 1.1 mg/kg/injection, schedule: Q01DX015 (ip), vehicle: carboxymethylcellulose (CMC)", "value": "182 % of control"},
      {"measurement": "T/C", "setting": "dose: 1.1 mg/kg/injection, schedule: Q03DX006 (ip), vehicle: carboxymethylcellulose (CMC)", "value": "181 % of control"},
      {"measurement": "T/C", "setting": "dose: 1.2 mg/kg/injection, schedule: Q01DX Z (ip), vehicle: alkali diluted with saline", "value": "118 % of control"},
      {"measurement": "T/C", "setting": "dose: 1.2 mg/kg/injection, schedule: Q01DX Z (ip), vehicle: saline", "value": "159 % of control"},
      {"measurement": "T/C", "setting": "dose: 1.25 mg/kg/injection, schedule: Q07DX003 (ip), vehicle: carboxymethylcellulose (CMC)", "value": "114 % of control and 201 % of control"},
      {"measurement": "T/C", "setting": "dose: 1.3 mg/kg/injection, schedule: Q01DX Z (ip), vehicle: other", "value": "120 % of control"},
      {"measurement": "T/C", "setting": "dose: 1.5 mg/kg/injection, schedule: Q01DX006 (iv), vehicle: carboxymethylcellulose (CMC)", "value": "104 % of control and 109 % of control"},
      {"measurement": "T/C", "setting": "dose: 1.5 mg/kg/injection, schedule: Q01DX Z (im), vehicle: carboxymethylcellulose (CMC)", "value": "108 % of control"},
      {"measurement": "T/C", "setting": "dose: 1.5 mg/kg/injection, schedule: Q01DX Z (ip), vehicle: carboxymethylcellulose (CMC)", "value": "115 % of control"},
      {"measurement": "T/C", "setting": "dose: 1.5 mg/kg/injection, schedule: Q01DX Z (oral), vehicle: carboxymethylcellulose (CMC)", "value": "119 % of control"},
      {"measurement": "T/C", "setting": "dose: 1.5 mg/kg/injection, schedule: Q01DX Z (sc), vehicle: carboxymethylcellulose (CMC)", "value": "115 % of control"},
      {"measurement": "T/C", "setting": "dose: 1.5 mg/kg/injection, schedule: Q#A X Z (ip), vehicle: carboxymethylcellulose (CMC)", "value": "111 % of control"},
      {"measurement": "T/C", "setting": "dose: 1.6 mg/kg/injection, schedule: Q01DX001 (ip), vehicle: gum acacia", "value": "110 % of control"},
      {"measurement": "T/C", "setting": "dose: 1.7 mg/kg/injection, schedule: Q01DX015 (ip), vehicle: carboxymethylcellulose (CMC)", "value": "170 % of control"},
      {"measurement": "T/C", "setting": "dose: 1.8 mg/kg/injection, schedule: Q01DX Z (ip), vehicle: alkali diluted with saline", "value": "112 % of control"},
      {"measurement": "T/C", "setting": "dose: 1.8 mg/kg/injection, schedule: Q01DX Z (ip), vehicle: other", "value": "109 % of control"},
      {"measurement": "T/C", "setting": "dose: 2.0 mg/kg/injection, schedule: Q01DX001 (ip), vehicle: carboxymethylcellulose (CMC)", "value": "109 % of control and 123 % of control"},
      {"measurement": "T/C", "setting": "dose: 2.4 mg/kg/injection, schedule: Q01DX001 (ip), vehicle: gum acacia", "value": "186 % of control"},
      {"measurement": "T/C", "setting": "dose: 2.5 mg/kg/injection, schedule: Q01DX Z (ip), vehicle: alkali diluted with saline", "value": "116 % of control"},
      {"measurement": "T/C", "setting": "dose: 2.7 mg/kg/injection, schedule: Q01DX Z (ip), vehicle: other", "value": "124 % of control"},
      {"measurement": "T/C", "setting": "dose: 3.0 mg/kg/injection, schedule: Q01DX006 (iv), vehicle: carboxymethylcellulose (CMC)", "value": "112 % of control"},
      {"measurement": "T/C", "setting": "dose: 3.0 mg/kg/injection, schedule: Q01DX Z (ip), vehicle: carboxymethylcellulose (CMC)", "value": "105 % of control and 115 % of control"},
      {"measurement": "T/C", "setting": "dose: 3.0 mg/kg/injection, schedule: Q01DX Z (ip), vehicle: saline", "value": "112 % of control"},
      {"measurement": "T/C", "setting": "dose: 3.6 mg/kg/injection, schedule: Q01DX001 (ip), vehicle: carboxymethylcellulose (CMC)", "value": "163 % of control"},
      {"measurement": "T/C", "setting": "dose: 3.6 mg/kg/injection, schedule: Q01DX001 (ip), vehicle: gum acacia", "value": "150 % of control"},
      {"measurement": "T/C", "setting": "dose: 3.7 mg/kg/injection, schedule: Q01DX Z (ip), vehicle: saline", "value": "90 % of control"},
      {"measurement": "T/C", "setting": "dose: 4.5 mg/kg/injection, schedule: Q03DX006 (ip), vehicle: carboxymethylcellulose (CMC)", "value": "111 % of control"},
      {"measurement": "T/C", "setting": "dose: 5.0 mg/kg/injection, schedule: Q01DX001 (ip), vehicle: carboxymethylcellulose (CMC)", "value": "161 % of control"},
      {"measurement": "T/C", "setting": "dose: 5.0 mg/kg/injection, schedule: Q07DX003 (ip), vehicle: carboxymethylcellulose (CMC)", "value": "188 % of control"},
      {"measurement": "T/C", "setting": "dose: 5.4 mg/kg/injection, schedule: Q01DX001 (ip), vehicle: gum acacia", "value": "172 % of control and 330 % of control"},
      {"measurement": "T/C", "setting": "dose: 6.0 mg/kg/injection, schedule: Q01DX Z (im), vehicle: carboxymethylcellulose (CMC)", "value": "95 % of control"},
      {"measurement": "T/C", "setting": "dose: 6.0 mg/kg/injection, schedule: Q01DX Z (oral), vehicle: carboxymethylcellulose (CMC)", "value": "104 % of control"},
      {"measurement": "T/C", "setting": "dose: 6.0 mg/kg/injection, schedule: Q01DX Z (sc), vehicle: carboxymethylcellulose (CMC)", "value": "105 % of control"},
      {"measurement": "T/C", "setting": "dose: 6.0 mg/kg/injection, schedule: Q#A X Z (ip), vehicle: carboxymethylcellulose (CMC)", "value": "154 % of control"},
      {"measurement": "T/C", "setting": "dose: 10.0 mg/kg/injection, schedule: Q01DX001 (ip), vehicle: carboxymethylcellulose (CMC)", "value": "105 % of control and 123 % of control"},
      {"measurement": "T/C", "setting": "dose: 12.0 mg/kg/injection, schedule: Q01DX006 (iv), vehicle: carboxymethylcellulose (CMC)", "value": "115 % of control"},
      {"measurement": "T/C", "setting": "dose: 20.0 mg/kg/injection, schedule: Q01DX001 (ip), vehicle: carboxymethylcellulose (CMC)", "value": "120 % of control"},
      {"measurement": "T/C", "setting": "dose: 29.0 micrograms/kg/injection, schedule: Q01DX Z (ip), vehicle: saline", "value": "119 % of control"},
      {"measurement": "T/C", "setting": "dose: 44.0 micrograms/kg/injection, schedule: Q01DX Z (ip), vehicle: saline", "value": "121 % of control"},
      {"measurement": "T/C", "setting": "dose: 100.0 micrograms/kg/injection, schedule: Q01DX Z (ip), vehicle: saline", "value": "113 % of control"}
    ]}
  ]
}
